Measurements from PMC2994263 (Chemical biology & drug design, 2010).

Assays:
[1] = test system: mutant AT1 receptor containing the IC2 of the BKB2R; conditions: HEK-293 cells, ref [10]; cited from earlier work
[2] = test system: NFκB p65 (Ser536) phosphorylation by AngII; experiment: NFκB p65 phosphorylation; type: cell-based, human; conditions: 10 nM AngII, 5 min
AT1 receptor [3] = conditions: AT1 cDNA transfected HEK-293 cells; ref [10]; cited from earlier work
[4] = test system: Akt/PKB (Ser473) phosphorylation by AngII via endogenous AT1 receptor; experiment: Akt/PKB phosphorylation; type: cell-based, human; conditions: 10 nM AngII, 5 min
AT1 receptor [5] = experiment: Phosphoinositide; type: cell-based, human
AT1 receptor [6] = experiment: Calcium mobilization in AT1-transfected HEK-293 cells; type: cell-based, human; conditions: 10 nM AngII, Fura-2/AM fluorescence
[7] = test system: ERK1/2 activation by AngII; experiment: ERK1/2 phosphorylation; type: cell-based, human; conditions: 10 μM peptide; 10 nM AngII, 5 min; western blot; average of three gels
bradykinin B2 receptor = bradykinin B2 receptor cDNA transfected cells; ref [10]; cited from earlier work

Angiotensin II (DRVYIHPF; Angiotensin-2; UniProt P01019 25-32, looked up) [AngII]
pAkt (in words) [1]: decreased pAkt
Ser536 phosphorylation of p65 by AngII (in words) ([2]; no peptide): clearly enhanced
Akt phosphorylation (in words) (AT1 receptor [3]): increases Akt phosphorylation
activation of Akt/PKB by AngII (in words) ([4]; no peptide): sizable activation of Akt/PKB
PI turnover induced by AngII (in words) (AT1 receptor [5]; 10 nM AngII, 30 min at 37°C, no peptide): induced a marked PI turnover
calcium influx caused by AngII (in words) (AT1 receptor [6]; no peptide): strong calcium influx

GRKKRRQRRRPPQGGVHPMKSRLRRT [AT1 IC2 peptide]
effect on ERK1/2 activation by AngII (in words) [7]: no effect

GRKKRRQRRRPPQGGVKTMSMGRMRG [control peptide]
effect on ERK1/2 activation by AngII (in words) [7]: neither the control peptide nor the IC2 peptide at 10 μM affected the activation of this MAP kinase by AngII
effect on AngII dependent NFκB activation / p65 phosphorylation (in words) ([2]; 10 μM peptide): no inhibitory effect
effect on AngII induced Akt phosphorylation (in words) ([4]; 10 μM peptide): no effect
effect on AngII induced PI turnover (in words) (AT1 receptor [5]; 10 μM peptide, 30 min before 10 nM AngII): unhindered
effect on AngII promoted Ca2+ entry (in words) (AT1 receptor [6]; 10 μM peptide): no effect

bradykinin
Akt phosphorylation (in words) (bradykinin B2 receptor): decreases it
